System: IGROV1 complex spheroids (HUVEC, MSC), viability % test/control
Experiment: Anticancer human tumor IGROV1 cell line growth inhibition [GQUAD];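 note: spheroids exposed to compounds for 7 days before readout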
Details: for IC50: curve of first compound; for viability, T/C: stronger effect = lower value
From the text: DNA G-quadruplex Stabilizer Agents in Combinations in Complex Spheroids
A high-throughput screen of multi-cell type tumor spheroids was designed to identify active combinations of DNA G-quadruplex stabilizer agents and targeted small molecules. Complex spheroids include a stromal component modeled by human endothelial cells (HUVEC) and fibroblasts modeled by human mesenchymal stem cells (MSCs). The concentration ranges selected for each drug and investigational agent were based upon clinically achievable concentrations if the clinical Cmax of the agent was known.
Compounds. The drugs and investigational agents: pidnarulex (CX-5461; NSC782164), APTO-253 (NSC789042), BRACO-19 (NSC847499), peposertib (NSC802822), ceralasertib (NSC780249), elimusertib (NSC800525), camonsertib (NSC841442), AZD-1390 (NSC803789), olaparib (NSC753686), talazoparib (NSC767125), ART-558 (NSC835418), sotorasib (NSC818433), MRTX-1133 (NSC836407), SN-38 (NSC673596), topotecan (NSC609699), etoposide (NSC141540), doxorubicin (NSC123127), gemcitabine (NSC613327), 5-fluorouracil (NSC19893), paclitaxel (NSC125973), vemurafenib (NSC761431), panobinostat (NSC761190), R-306465 (JNJ-16241199; NSC773264), adavosertib (NSC754352), TP-3654 (NSC805149), carboplatin (NSC241240), KSQ-4279 (NSC840948), and staurosporine (NSC755774) were obtained from the National Cancer Institute (NCI) Developmental Therapeutics Program Chemical Repository (34). The FDA-approved anticancer drug set is available from the NCI Developmental Therapeutics Program. […] The stock solutions were prepared in dimethyl sulfoxide (DMSO, Sigma-Aldrich, St. Louis, MO, cat. D2650) at 800-fold the tested concentration and stored at -70 degrees C prior to their use. All drugs and investigational agents were tested over a range starting from a high concentration at or near the clinical Cmax and decreasing in half-log increments. If the clinical Cmax for an agent had not been determined, the highest concentration tested was 10 microM.
2.3 Cell Culture. All cells were maintained in an incubator at 37 degrees C and 5% CO2 with 95% humidity. The PDC lines were cultured according to standard operating procedures established by the NCI PDMR. All PDCs were thawed and cultured in Matrigel-coated flasks prepared with a working solution of 1X Ham's F-12 nutrient mix, without supplementation (Invitrogen, cat. 11765054), 100 U/mL penicillin-streptomycin (Invitrogen, cat. 15140122), and 2.5% Matrigel (Corning Inc., cat. 354248) for the first three passages. The 857933-349-R-J2-PDC line was cultured in 6C/Colon 1B media, which includes advanced DMEM/F-12 (Thermo Fisher Scientific, cat. 12634028), 10 mM HEPES (Thermo Fisher Scientific, cat. 15630080), 1X GlutaMAX supplement (Thermo Fisher Scientific, cat. 35050061), 0.1 mg/mL primocin (InvivoGen, cat. ant-pm-2), 10% defined fetal bovine serum, heat inactivated (HyClone Laboratories Inc., cat. SH30070.03HI), 50% L-WRN conditioned media (ATCC, cat. CRL-3276), 1.25 mM N-Acetyl-L-cysteine (Sigma-Aldrich, cat. A9165), 10 mM nicotinamide (Sigma-Aldrich, cat. N0636), 1X B-27 supplement (Thermo Fisher Scientific, cat. 17504044), 1X N-2 supplement (Thermo Fisher Scientific, cat. 17502048), 10 microM Y-27632 dihydrochloride (Tocris Bioscience, cat. 1254), and 50 ng/mL human EGF recombinant protein (Thermo Fisher Scientific, cat. PHG0311). The 485176-168-R4-J1-PDC line was cultured in Panc media, which includes all 6C/Colon 1B media components plus 100 ng/mL human FGF-10 (Thermo Fisher Scientific, cat. 100-26), 500 nM SB-431542 (Selleckchem, cat. S1067), and gastrin (Tocris, cat. 3006).
[…]

[1] = second compound 0.0316 µM, first compound 0.0316 µM
[2] = second compound 0.0316 µM, first compound 0.1 µM
[3] = second compound 0.0316 µM, first compound 0.316 µM
[4] = second compound 0.0316 µM, first compound 1 µM
[5] = second compound 0.0316 µM, first compound 3.16 µM
[6] = second compound 0.0316 µM, first compound 10 µM
[7] = second compound 0.1 µM, first compound 0.0316 µM
[8] = second compound 0.1 µM, first compound 0.1 µM
[9] = second compound 0.1 µM, first compound 0.316 µM
[10] = second compound 0.1 µM, first compound 1 µM
[11] = second compound 0.1 µM, first compound 3.16 µM
[12] = second compound 0.1 µM, first compound 10 µM
[13] = second compound 0.316 µM, first compound 0.0316 µM
[14] = second compound 0.316 µM, first compound 0.1 µM
[15] = second compound 0.316 µM, first compound 0.316 µM
[16] = second compound 0.316 µM, first compound 1 µM
[17] = second compound 0.316 µM, first compound 3.16 µM
[18] = second compound 0.316 µM, first compound 10 µM
[19] = second compound 1 µM, first compound 0.0316 µM
[20] = second compound 1 µM, first compound 0.1 µM
[21] = second compound 1 µM, first compound 0.316 µM
[22] = second compound 1 µM, first compound 1 µM
[23] = second compound 1 µM, first compound 3.16 µM
[24] = second compound 1 µM, first compound 10 µM
[25] = second compound 3.16 µM, first compound 0.0316 µM
[26] = second compound 3.16 µM, first compound 0.1 µM
[27] = second compound 3.16 µM, first compound 0.316 µM
[28] = second compound 3.16 µM, first compound 1 µM
[29] = second compound 3.16 µM, first compound 3.16 µM
[30] = second compound 3.16 µM, first compound 10 µM
[31] = second compound 10 µM, first compound 0.0316 µM
[32] = second compound 10 µM, first compound 0.1 µM
[33] = second compound 10 µM, first compound 0.316 µM
[34] = second compound 10 µM, first compound 1 µM
[35] = second compound 10 µM, first compound 3.16 µM
[36] = second compound 10 µM, first compound 10 µM

SMILES: CC(=O)O[C@H]1C(=O)[C@@]2(C)[C@H]([C@H](OC(=O)c3ccccc3)[C@]3(O)C[C@H](OC(=O)[C@H](O)[C@@H](NC(=O)c4ccccc4)c4ccccc4)C(C)=C1C3(C)C)[C@]1(OC(C)=O)CO[C@@H]1C[C@@H]2O + Cc1[nH]c2ccc(F)cc2c1-c1nc2c3cccnc3c3ncccc3c2[nH]1
- IC50 (second compound 0.0316 µM): < 0.0316 µM
- IC50 (second compound 0.1 µM): < 0.0316 µM
- IC50 (second compound 0.316 µM): < 0.0316 µM
- IC50 (second compound 1 µM): < 0.0316 µM
- IC50 (second compound 3.16 µM): < 0.0316 µM
- IC50 (second compound 10 µM): < 0.0316 µM
- viability, T/C [1]: 8.39%
- viability, T/C [2]: 5.36%
- viability, T/C [3]: 5.66%
- viability, T/C [4]: 4.68%
- viability, T/C [5]: 4.86%
- viability, T/C [6]: 4.6%
- viability, T/C [7]: 7.76%
- viability, T/C [8]: 6.43%
- viability, T/C [9]: 6.02%
- viability, T/C [10]: 4.48%
- viability, T/C [11]: 4.3%
- viability, T/C [12]: 4.13%
- viability, T/C [13]: 4.55%
- viability, T/C [14]: 3.65%
- viability, T/C [15]: 3.47%
- viability, T/C [16]: 3.01%
- viability, T/C [17]: 2.72%
- viability, T/C [18]: 2.99%
- viability, T/C [19]: 2.66%
- viability, T/C [20]: 2.5%
- viability, T/C [21]: 2.5%
- viability, T/C [22]: 2.49%
- viability, T/C [23]: 2.3%
- viability, T/C [24]: 2.06%
- viability, T/C [25]: 2.72%
- viability, T/C [26]: 2.23%
- viability, T/C [27]: 2.86%
- viability, T/C [28]: 2.81%
- viability, T/C [29]: 2.28%
- viability, T/C [30]: 2.17%
- viability, T/C [31]: 1.84%
- viability, T/C [32]: 2.38%
- viability, T/C [33]: 2.16%
- viability, T/C [34]: 2.22%
- viability, T/C [35]: 2.3%
- viability, T/C [36]: 2.4%

SMILES: CC(C)(O)C1CCC(Nc2ccc3ncc(-c4cccc(C(F)(F)F)c4)n3n2)CC1 (stereo unspecified) + Cc1[nH]c2ccc(F)cc2c1-c1nc2c3cccnc3c3ncccc3c2[nH]1
- IC50 (second compound 0.0316 µM): 2.01 µM
- IC50 (second compound 0.1 µM): 1.82 µM
- IC50 (second compound 0.316 µM): 0.623 µM
- IC50 (second compound 1 µM): < 0.0316 µM
- IC50 (second compound 3.16 µM): < 0.0316 µM
- IC50 (second compound 10 µM): < 0.0316 µM
- viability, T/C [1]: 93.8%
- viability, T/C [2]: 83.1%
- viability, T/C [3]: 94.3%
- viability, T/C [4]: 82.7%
- viability, T/C [5]: 27.4%
- viability, T/C [6]: 30%
- viability, T/C [7]: 99.3%
- viability, T/C [8]: 83.3%
- viability, T/C [9]: 102%
- viability, T/C [10]: 68.5%
- viability, T/C [11]: 32.9%
- viability, T/C [12]: 33.4%
- viability, T/C [13]: 69.6%
- viability, T/C [14]: 70.6%
- viability, T/C [15]: 65.3%
- viability, T/C [16]: 38.8%
- viability, T/C [17]: 6.69%
- viability, T/C [18]: 5.42%
- viability, T/C [19]: 3.27%
- viability, T/C [20]: 3.08%
- viability, T/C [21]: 4.14%
- viability, T/C [22]: 3.08%
- viability, T/C [23]: 3.37%
- viability, T/C [24]: 2.43%
- viability, T/C [25]: 2.86%
- viability, T/C [26]: 3.13%
- viability, T/C [27]: 3.35%
- viability, T/C [28]: 3.26%
- viability, T/C [29]: 2.39%
- viability, T/C [30]: 2.06%
- viability, T/C [31]: 3.41%
- viability, T/C [32]: 3.18%
- viability, T/C [33]: 3.27%
- viability, T/C [34]: 2.99%
- viability, T/C [35]: 2.37%
- viability, T/C [36]: 2.38%

SMILES: Nc1ccn(C2OC(CO)C(O)C2(F)F)c(=O)n1 (stereo unspecified) + Cc1[nH]c2ccc(F)cc2c1-c1nc2c3cccnc3c3ncccc3c2[nH]1
- IC50 (second compound 0.0316 µM): < 0.0316 µM
- IC50 (second compound 0.1 µM): < 0.0316 µM
- IC50 (second compound 0.316 µM): < 0.0316 µM
- IC50 (second compound 1 µM): < 0.0316 µM
- IC50 (second compound 3.16 µM): < 0.0316 µM
- IC50 (second compound 10 µM): < 0.0316 µM
- viability, T/C [1]: 10.5%
- viability, T/C [2]: 6.29%
- viability, T/C [3]: 5.85%
- viability, T/C [4]: 6.52%
- viability, T/C [5]: 6.69%
- viability, T/C [6]: 5.57%
- viability, T/C [7]: 18%
- viability, T/C [8]: 6.64%
- viability, T/C [9]: 5.87%
- viability, T/C [10]: 5.31%
- viability, T/C [11]: 5.55%
- viability, T/C [12]: 6.59%
- viability, T/C [13]: 11.5%
- viability, T/C [14]: 6.38%
- viability, T/C [15]: 6.31%
- viability, T/C [16]: 6.72%
- viability, T/C [17]: 6.12%
- viability, T/C [18]: 5.22%
- viability, T/C [19]: 4.26%
- viability, T/C [20]: 5%
- viability, T/C [21]: 3.88%
- viability, T/C [22]: 3.77%
- viability, T/C [23]: 3.84%
- viability, T/C [24]: 3.25%
- viability, T/C [25]: 5.06%
- viability, T/C [26]: 4.43%
- viability, T/C [27]: 3.62%
- viability, T/C [28]: 4.5%
- viability, T/C [29]: 4.02%
- viability, T/C [30]: 2.81%
- viability, T/C [31]: 3.58%
- viability, T/C [32]: 4.69%
- viability, T/C [33]: 4.1%
- viability, T/C [34]: 4.26%
- viability, T/C [35]: 3.44%
- viability, T/C [36]: 2.86%
